Reference: PubChem BioAssay (NCI)
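Abbreviation: GI50, concentration required for 50% inhibition of growth. TGI: total growth inhibition.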

Columns and labels:
Test in all cases: NCI-60 cell line screen, 384-well format
[1] = test system: A498 renal
[2] = test system: A549 NSCLC
[3] = test system: ACHN renal
[4] = test system: BT-549 breast
[5] = test system: CAKI-1 renal
[6] = test system: CCRF-CEM leukemia
[7] = test system: COLO 205 colon
[8] = test system: DU-145 prostate
[9] = test system: EKVX NSCLC
[10] = test system: HCC-2998 colon
[11] = test system: HCT-116 colon
[12] = test system: HL-60(TB) leukemia
[13] = test system: HOP-62 NSCLC
[14] = test system: HOP-92 NSCLC
[15] = test system: HS 578T breast
[16] = test system: HT29 colon
[17] = test system: IGROV1 ovarian
[18] = test system: K-562 leukemia
[19] = test system: KM12 colon
[20] = test system: LOX IMVI melanoma
[21] = test system: M14 melanoma
[22] = test system: MALME-3M melanoma
[23] = test system: MCF7 breast
[24] = test system: MDA-MB-231 breast
[25] = test system: MDA-MB-435 melanoma
[26] = test system: MDA-MB-468 breast
[27] = test system: MOLT-4 leukemia
[28] = test system: NCI-H226 lung

## Cc1cc(-c2cnn3c(NCC4CC(C)(O)C4)cc(Oc4cccnc4)nc23)ccc1C(=O)NC1CC1 (stereo unspecified)
[1]
  GI50: 92.1 nM
  TGI: > 100000 nM
[2]
  GI50: 90.2 nM
  TGI: > 100000 nM
[3]
  GI50: 906 nM
  TGI: > 100000 nM
[4]
  GI50: 139 nM
  TGI: > 100000 nM
[5]
  GI50: 560 nM
  TGI: 94500 nM
[6]
  GI50: 23.9 nM
  TGI: 50.7 nM
[7]
  GI50: 39.4 nM
  TGI: > 100000 nM
[8]
  GI50: 68.9 nM
  TGI: > 100000 nM
[9]
  GI50: 1780 nM
  TGI: > 100000 nM
[10]
  GI50: 5560 nM
  TGI: > 100000 nM
[11]
  GI50: 49 nM
  TGI: > 100000 nM
[12]
  GI50: 29.3 nM
  TGI: 63.6 nM
[13]
  GI50: 83.4 nM
  TGI: > 100000 nM
[14]
  GI50: 4880 nM
  TGI: > 100000 nM
[15]
  GI50: 324 nM
  TGI: 38400 nM
[16]
  GI50: 2110 nM
  TGI: > 100000 nM
[17]
  GI50: 1010 nM
  TGI: > 100000 nM
[18]
  GI50: 818 nM
  TGI: > 100000 nM
[19]
  GI50: 67.3 nM
  TGI: > 100000 nM
[20]
  GI50: 49.5 nM
  TGI: > 100000 nM
[21]
  GI50: 245 nM
  TGI: > 100000 nM
[22]
  GI50: 1090 nM
  TGI: > 100000 nM
[23]
  GI50: 17200 nM
  TGI: > 100000 nM
[24]
  GI50: 735 nM
  TGI: > 100000 nM
[25]
  GI50: 6160 nM
  TGI: > 100000 nM
[26]
  GI50: 352 nM
  TGI: 4670 nM
[27]
  GI50: 22.7 nM
  TGI: 43.1 nM
[28]
  GI50: 77300 nM
  TGI: > 100000 nM
